Data taken from the NIST ThermoML archive (doi:10.1016/j.tca.2017.03.018).
± gives the expanded uncertainty stated by the source.

What was measured:
[1] = relative permittivity at zero frequency (dimensionless); conditions: 100 kPa, Liquid, time-domain reflectometry
[2] = relative permittivity at zero frequency (dimensionless); wn = mass fraction of the nth substance listed; conditions: 100 kPa, Liquid, time-domain reflectometry

In the case of `C[S+](C)[O-]` [dimethyl sulfoxide], the “relative permittivity at zero frequency” value ([1]; 283.15 K) is reported as 50.58 ± 1, the “relative permittivity at zero frequency” value ([1]; 288.15 K) is reported as 49.42 ± 0.99 and the “relative permittivity at zero frequency” value ([1]; 293.15 K) is reported as 47.81 ± 0.96. The “relative permittivity at zero frequency” value ([1]; 298.15 K) was 47.3 ± 0.95.

With `C[S+](C)[O-]` [dimethyl sulfoxide] + OC[C@@H](O)[C@@H](O)CO the “relative permittivity at zero frequency” value ([2]; 283.15 K, w2 = 0) was 50.58 ± 1, the “relative permittivity at zero frequency” value ([2]; 288.15 K, w2 = 0) was 49.42 ± 0.99 and the “relative permittivity at zero frequency” value ([2]; 293.15 K, w2 = 0) was 47.81 ± 0.96. For the same compound, the “relative permittivity at zero frequency” value ([2]; 298.15 K, w2 = 0) was 47.3 ± 0.95.

For `C[S+](C)[O-]` [dimethyl sulfoxide] + OC[C@@H](O)[C@@H](O)[C@H](O)[C@H](O)CO, the “relative permittivity at zero frequency” value ([2]; 283.15 K, w2 = 0) was 50.58 ± 1, the “relative permittivity at zero frequency” value ([2]; 288.15 K, w2 = 0) was 49.42 ± 0.99 and the “relative permittivity at zero frequency” value ([2]; 293.15 K, w2 = 0) was 47.81 ± 0.96. For the same compound, the “relative permittivity at zero frequency” value ([2]; 298.15 K, w2 = 0) was 47.3 ± 0.95.

For `C[S+](C)[O-]` [dimethyl sulfoxide] + OC[C@@H](O)[C@H](O)[C@@H](O)CO, the “relative permittivity at zero frequency” value ([2]; 283.15 K, w2 = 0) was 50.58 ± 1, the “relative permittivity at zero frequency” value ([2]; 288.15 K, w2 = 0) was 49.42 ± 0.99 and the “relative permittivity at zero frequency” value ([2]; 293.15 K, w2 = 0) was 47.81 ± 0.96. For the same compound, the “relative permittivity at zero frequency” value ([2]; 298.15 K, w2 = 0) was 47.3 ± 0.95.

For `OC[C@@H](O)[C@@H](O)[C@H](O)[C@H](O)CO` [mannitol] + C[S+](C)[O-], the “relative permittivity at zero frequency” value ([2]; 283.15 K, w1 = 0.05) was 52.35 ± 1.1, the “relative permittivity at zero frequency” value ([2]; 283.15 K, w1 = 0.1) was 55.31 ± 1.1 and the “relative permittivity at zero frequency” value ([2]; 283.15 K, w1 = 0.15) was 56.79 ± 1.1. The “relative permittivity at zero frequency” value ([2]; 288.15 K, w1 = 0.05) was 50.82 ± 1, the “relative permittivity at zero frequency” value ([2]; 288.15 K, w1 = 0.1) was 52.92 ± 1.1 and the “relative permittivity at zero frequency” value ([2]; 288.15 K, w1 = 0.15) was 55.37 ± 1.1. For the same compound, the “relative permittivity at zero frequency” value ([2]; 293.15 K, w1 = 0.05) was 49.49 ± 0.99, the “relative permittivity at zero frequency” value ([2]; 293.15 K, w1 = 0.1) was 51.48 ± 1 and the “relative permittivity at zero frequency” value ([2]; 293.15 K, w1 = 0.15) was 53.15 ± 1.1. For the same compound, the “relative permittivity at zero frequency” value ([2]; 298.15 K, w1 = 0.05) was 48.89 ± 0.98, the “relative permittivity at zero frequency” value ([2]; 298.15 K, w1 = 0.1) was 50.27 ± 1 and the “relative permittivity at zero frequency” value ([2]; 298.15 K, w1 = 0.15) was 52.18 ± 1.

In the case of `OC[C@@H](O)[C@@H](O)CO` [meso-1,2,3,4-butanetetrol] + C[S+](C)[O-], the “relative permittivity at zero frequency” value ([2]; 283.15 K, w1 = 0.05) is reported as 51.26 ± 1, the “relative permittivity at zero frequency” value ([2]; 283.15 K, w1 = 0.1) is reported as 54.06 ± 1.1 and the “relative permittivity at zero frequency” value ([2]; 283.15 K, w1 = 0.15) is reported as 55.7 ± 1.1. For the same compound, the “relative permittivity at zero frequency” value ([2]; 283.15 K, w1 = 0.2) was 57.23 ± 1.1, the “relative permittivity at zero frequency” value ([2]; 283.15 K, w1 = 0.25) was 58.96 ± 1.2 and the “relative permittivity at zero frequency” value ([2]; 288.15 K, w1 = 0.05) was 50.01 ± 1. For the same compound, the “relative permittivity at zero frequency” value ([2]; 288.15 K, w1 = 0.1) was 51.84 ± 1, the “relative permittivity at zero frequency” value ([2]; 288.15 K, w1 = 0.15) was 52.87 ± 1.1 and the “relative permittivity at zero frequency” value ([2]; 288.15 K, w1 = 0.2) was 54.96 ± 1.1. The “relative permittivity at zero frequency” value ([2]; 288.15 K, w1 = 0.25) was 55.78 ± 1.1, the “relative permittivity at zero frequency” value ([2]; 293.15 K, w1 = 0.05) was 48.57 ± 0.97 and the “relative permittivity at zero frequency” value ([2]; 293.15 K, w1 = 0.1) was 50.49 ± 1. The “relative permittivity at zero frequency” value ([2]; 293.15 K, w1 = 0.15) was 51.35 ± 1, the “relative permittivity at zero frequency” value ([2]; 293.15 K, w1 = 0.2) was 53.36 ± 1.1 and the “relative permittivity at zero frequency” value ([2]; 293.15 K, w1 = 0.25) was 54.3 ± 1.1. For the same compound, the “relative permittivity at zero frequency” value ([2]; 298.15 K, w1 = 0.05) was 47.78 ± 0.96, the “relative permittivity at zero frequency” value ([2]; 298.15 K, w1 = 0.1) was 48.96 ± 0.98 and the “relative permittivity at zero frequency” value ([2]; 298.15 K, w1 = 0.15) was 50.43 ± 1. For the same compound, the “relative permittivity at zero frequency” value ([2]; 298.15 K, w1 = 0.2) was 52.23 ± 1.1 and the “relative permittivity at zero frequency” value ([2]; 298.15 K, w1 = 0.25) was 52.77 ± 1.1.

For `OC[C@@H](O)[C@H](O)[C@@H](O)CO` [xylitol] + C[S+](C)[O-], the “relative permittivity at zero frequency” value ([2]; 283.15 K, w1 = 0.05) was 52.53 ± 1.1, the “relative permittivity at zero frequency” value ([2]; 283.15 K, w1 = 0.1) was 53.28 ± 1.1 and the “relative permittivity at zero frequency” value ([2]; 283.15 K, w1 = 0.15) was 56.35 ± 1.1. For the same compound, the “relative permittivity at zero frequency” value ([2]; 283.15 K, w1 = 0.2) was 58.46 ± 1.2, the “relative permittivity at zero frequency” value ([2]; 283.15 K, w1 = 0.25) was 58.08 ± 1.2 and the “relative permittivity at zero frequency” value ([2]; 288.15 K, w1 = 0.05) was 50.33 ± 1. For the same compound, the “relative permittivity at zero frequency” value ([2]; 288.15 K, w1 = 0.1) was 51.31 ± 1, the “relative permittivity at zero frequency” value ([2]; 288.15 K, w1 = 0.15) was 53.72 ± 1.1 and the “relative permittivity at zero frequency” value ([2]; 288.15 K, w1 = 0.2) was 55.28 ± 1.1. For the same compound, the “relative permittivity at zero frequency” value ([2]; 288.15 K, w1 = 0.25) was 55.18 ± 1.1, the “relative permittivity at zero frequency” value ([2]; 293.15 K, w1 = 0.05) was 49.39 ± 0.99 and the “relative permittivity at zero frequency” value ([2]; 293.15 K, w1 = 0.1) was 50.11 ± 1. The “relative permittivity at zero frequency” value ([2]; 293.15 K, w1 = 0.15) was 52.45 ± 1.1, the “relative permittivity at zero frequency” value ([2]; 293.15 K, w1 = 0.2) was 53.97 ± 1.1 and the “relative permittivity at zero frequency” value ([2]; 293.15 K, w1 = 0.25) was 54.23 ± 1.1. The “relative permittivity at zero frequency” value ([2]; 298.15 K, w1 = 0.05) was 48.1 ± 0.96, the “relative permittivity at zero frequency” value ([2]; 298.15 K, w1 = 0.1) was 49.63 ± 0.99 and the “relative permittivity at zero frequency” value ([2]; 298.15 K, w1 = 0.15) was 51.6 ± 1. For the same compound, the “relative permittivity at zero frequency” value ([2]; 298.15 K, w1 = 0.2) was 53.03 ± 1.1 and the “relative permittivity at zero frequency” value ([2]; 298.15 K, w1 = 0.25) was 53.69 ± 1.1.
